Experimental data published in the NIST ThermoML archive (doi:10.1016/j.fluid.2010.12.008).
± gives the expanded uncertainty stated by the source.

Tests used:
[1] = for Normal melting temperature: Crystal 1
[2] = Molar enthalpy of transition or fusion; details: DSC

CCCCCCO [hexan-1-ol]
Normal melting temperature ([1]; visual observation): -45.00 ± 1.1 °C

O [water]
Normal melting temperature ([1]; visual observation): 0.00 ± 1.1 °C

CCCCCCCCCCO [decan-1-ol]
Normal melting temperature ([1]; visual observation): 7.00 ± 1.1 °C

CCCCCCCO [heptan-1-ol]
Normal melting temperature ([1]; visual observation): -34.60 ± 1.1 °C

CCCCCCCCCCCCO [dodecan-1-ol]
Normal melting temperature ([1]; visual observation): 24.00 ± 1.1 °C

CCCC[N+]1(C)CCCCC1.N#C[S-] [1-butyl-1-methylpiperidinium thiocyanate]
Normal melting temperature ([1]; DTA): 31.17 ± 0.5 °C | Triple point temperature ([1]; Crystal 2, DTA): 274.2 ± 0.5 K | Glass transition temperature ([1]; Glass, DTA): -71.8 ± 10 °C | Molar enthalpy of transition or fusion ([2]; Crystal 1): 3.02 ± 0.2 kJ/mol | Molar enthalpy of transition or fusion ([2]; Crystal 2): 15.3 ± 0.49 kJ/mol

CCCCCCCCO [octan-1-ol]
Normal melting temperature ([1]; visual observation): -16.00 ± 1.1 °C

CC[N+]1(C)CCCCC1.O=S(=O)([N-]S(=O)(=O)C(F)(F)F)C(F)(F)F
Normal melting temperature ([1]; DTA): 84.89 ± 0.5 °C | Normal melting temperature ([1]; visual observation): 84.56 ± 0.5 °C | Triple point temperature ([1]; Crystal 2, visual observation): 289.6 ± 0.5 K | Triple point temperature ([1]; Crystal 3, DTA): 215.8 ± 0.5 K | Molar enthalpy of transition or fusion ([2]; Crystal 1): 16.6 ± 0.52 kJ/mol | Molar enthalpy of transition or fusion ([2]; Crystal 2): 3.53 ± 0.19 kJ/mol | Molar enthalpy of transition or fusion ([2]; Crystal 3): 2.45 ± 0.17 kJ/mol
